Measured values published in US10973832B2, “Muscarinic M1 receptor agonists” (Heptares Therapeutics Limited, priority 2011, dated 2021).

Assays:
Type in all cases: cell-based
[1] = system: CA1 region of rat hippocampal slices; assay: CA1 cell firing (fEPSP amplitude); conditions: five point cumulative concentration-response, 6 slices averaged
Experimental: Rat hippocampal slices of […] thickness were cut in chilled (<4° C.) artificial cerebrospinal fluid (aCSF, composition in mM: NaCl 127, KCl 1.6, KH2PO4 1.24, MgSO4 1.3, CaCl2 2.4, NaHCO3 26 and D-glucose 10) using vibratome. Slices were maintained in oxygenated (95% O2/5% CO2) aCSF at room temperature for at least 1 hr prior to electrophysiological recording, after which they were transferred to an interface chamber and constantly perfused with warmed (30° C.) oxygenated aCSF at a flow rate of 1.5-3 ml·min−1. Schaffer collaterals were then stimulated (1-20 V, 0.1 ms pulse width, 0.033 Hz) with a concentric bipolar electrode to evoke field excitatory post synaptic potentials (fEPSPs) recorded from the stratum radiatum of the CA1 region.
Experiments were performed to examine the effect of compound compared to […] carbachol (CCh), on the amplitude of fEPSPs in the CA1 region of rat hippocampal slices. 1 μM CCh was initially applied until steady-state, followed by wash, before performing a five point cumulative concentration-response to compound. Each compound was tested on 6 slices and results averaged. Drug preparation; compound was dissolved in 100% DMSO at a stock concentration of 30 mM, and diluted according to requirements, carbamoylcholine chloride (CCh) was purchased from Sigma (Cat #C4382) and dissolved at a stock concentration of 1 mM in ddH2O.

[2] = target: T1, human muscarinic M4 receptor (Homo sapiens, UniProt P08173); assay: Phospho-ERK1/2 assay, muscarinic M4; conditions: for EC50: CHO cells expressing human M4, phospho-ERK1/2 Alphascreen, read-out: pEC50 M4 (converted); for Emax: CHO, read-out: % Emax cf. ACh (M4)
T1 construct: expressed in transfected cells
T1 sequence (P08173 1-479): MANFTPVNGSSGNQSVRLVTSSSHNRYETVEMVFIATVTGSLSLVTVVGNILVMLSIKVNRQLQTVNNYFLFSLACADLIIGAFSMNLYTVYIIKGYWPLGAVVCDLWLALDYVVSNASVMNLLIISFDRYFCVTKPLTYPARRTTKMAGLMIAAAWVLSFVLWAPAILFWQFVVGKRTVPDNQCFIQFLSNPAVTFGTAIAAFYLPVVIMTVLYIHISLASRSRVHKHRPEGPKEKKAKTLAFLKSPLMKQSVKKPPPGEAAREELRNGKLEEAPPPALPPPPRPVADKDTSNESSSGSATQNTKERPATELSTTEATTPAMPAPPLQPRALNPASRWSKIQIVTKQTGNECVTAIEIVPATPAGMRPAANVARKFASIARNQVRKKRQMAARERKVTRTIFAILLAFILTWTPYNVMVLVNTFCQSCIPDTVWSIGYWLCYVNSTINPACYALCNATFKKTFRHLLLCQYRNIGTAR
Experimental: (§1) Functional assays were performed using the Alphascreen Surefire phospho-ERK1/2 assay (Crouch & Osmond, Comb. Chem. High Throughput Screen, 2008). ERK1/2 phosphorylation is a downstream consequence of both Gq/11 and Gi/o protein coupled receptor activation, making it highly suitable for the assessment of M1, M3 (Gq/11 coupled) and M2, M4 receptors (Gi/o coupled), rather than using different assay formats for different receptor subtypes. CHO cells stably expressing the human muscarinic M1, M2, M3 or M4 receptor were plated (25K/well) onto 96-well tissue culture plates in MEM-alpha+10% dialysed FBS. Once adhered, cells were serum-starved overnight. Agonist stimulation was performed by the addition of 5 μL agonist to the cells for 5 min (37° C.). Media was removed and 50 μL of lysis buffer added. After 15 min, a 4 μL sample was transferred to 384-well plate and 7 μL of detection mixture added. Plates were incubated for 2 h with gentle agitation in the dark and then read on a PHERAstar plate reader.
(§2) pEC50 and Emax figures were calculated from the resulting data for each receptor subtype.

[3] = target: T2, human muscarinic M1 receptor (Homo sapiens, UniProt P11229); assay: Phospho-ERK1/2 assay, muscarinic M1; conditions: for EC50: CHO cells expressing human M1, phospho-ERK1/2 Alphascreen, read-out: pEC50 M1 (converted); for Emax: CHO, read-out: % Emax cf. ACh (M1)
T2 sequence (P11229 1-460): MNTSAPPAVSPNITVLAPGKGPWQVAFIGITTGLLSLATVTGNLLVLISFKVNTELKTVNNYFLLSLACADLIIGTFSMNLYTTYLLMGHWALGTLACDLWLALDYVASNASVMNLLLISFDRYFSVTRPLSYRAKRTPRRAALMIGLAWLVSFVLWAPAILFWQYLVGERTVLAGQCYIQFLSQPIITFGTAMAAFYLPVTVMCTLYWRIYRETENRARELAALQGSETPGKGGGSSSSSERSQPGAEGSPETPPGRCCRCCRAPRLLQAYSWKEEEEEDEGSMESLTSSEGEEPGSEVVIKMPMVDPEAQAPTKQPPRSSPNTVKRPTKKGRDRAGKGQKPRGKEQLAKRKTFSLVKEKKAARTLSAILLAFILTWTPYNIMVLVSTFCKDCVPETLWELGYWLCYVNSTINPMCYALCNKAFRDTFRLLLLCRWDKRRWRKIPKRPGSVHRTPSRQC
Experimental: as §1, §2

[4] = target: T3, human muscarinic M2 receptor (Homo sapiens, UniProt P08172); assay: Phospho-ERK1/2 assay, muscarinic M2; conditions: for EC50: CHO cells expressing human M2, phospho-ERK1/2 Alphascreen, read-out: pEC50 M2 (converted); for Emax: CHO, read-out: % Emax cf. ACh (M2)
T3 sequence (P08172 1-466): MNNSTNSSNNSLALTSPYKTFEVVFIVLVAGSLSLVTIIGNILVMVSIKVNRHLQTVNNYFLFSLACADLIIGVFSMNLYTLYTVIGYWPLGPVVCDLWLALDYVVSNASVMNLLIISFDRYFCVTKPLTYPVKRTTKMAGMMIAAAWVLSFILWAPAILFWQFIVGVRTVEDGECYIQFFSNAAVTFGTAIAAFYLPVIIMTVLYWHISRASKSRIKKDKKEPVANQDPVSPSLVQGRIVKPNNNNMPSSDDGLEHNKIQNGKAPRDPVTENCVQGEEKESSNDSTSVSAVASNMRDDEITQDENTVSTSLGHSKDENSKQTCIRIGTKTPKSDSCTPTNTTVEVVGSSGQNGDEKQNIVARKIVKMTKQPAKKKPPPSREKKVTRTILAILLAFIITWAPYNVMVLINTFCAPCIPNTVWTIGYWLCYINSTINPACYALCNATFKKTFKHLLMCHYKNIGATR
Experimental: as §1, §2

[5] = target: T4, human muscarinic M3 receptor (Homo sapiens, UniProt P20309); assay: Phospho-ERK1/2 assay, muscarinic M3; conditions: for EC50: CHO cells expressing human M3, phospho-ERK1/2 Alphascreen, read-out: pEC50 M3 (converted); for Emax: CHO, read-out: % Emax cf. ACh (M3)
T4 construct: expressed in transfected cells
T4 sequence (P20309 whole entry): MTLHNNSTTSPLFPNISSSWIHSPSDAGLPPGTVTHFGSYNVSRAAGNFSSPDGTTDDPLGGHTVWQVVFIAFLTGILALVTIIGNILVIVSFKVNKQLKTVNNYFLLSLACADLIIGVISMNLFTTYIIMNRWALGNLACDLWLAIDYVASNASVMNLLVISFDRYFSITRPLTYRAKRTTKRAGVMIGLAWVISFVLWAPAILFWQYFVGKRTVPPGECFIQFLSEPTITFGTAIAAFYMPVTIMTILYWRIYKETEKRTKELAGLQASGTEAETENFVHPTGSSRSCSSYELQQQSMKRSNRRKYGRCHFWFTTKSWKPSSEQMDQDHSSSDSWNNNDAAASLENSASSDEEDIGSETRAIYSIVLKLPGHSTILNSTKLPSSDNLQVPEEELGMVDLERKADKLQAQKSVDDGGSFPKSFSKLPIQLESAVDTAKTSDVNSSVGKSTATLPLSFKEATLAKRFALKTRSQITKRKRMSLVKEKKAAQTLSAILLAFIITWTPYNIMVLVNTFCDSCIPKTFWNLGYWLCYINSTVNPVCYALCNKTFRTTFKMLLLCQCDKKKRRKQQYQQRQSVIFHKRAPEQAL
Experimental: as §1, §2

EC50 [1] | EC50 [2] | Emax [2] | EC50 [3] | Emax [3] | EC50 [4] | Emax [4] | EC50 [5] | Emax [5] | Structure (SMILES)
9400 nM | 851 nM | 89% | 45.7 nM | 106% | > 20000 nM | 13% | > 20000 nM | 9% | CCOC(=O)N1CCCC(N2CCC(F)(C(=O)NCC(C)C)CC2)CC1 (centres unmarked) [Example 40, ethyl 4-(4-fluoro-4-((2-methylpropyl)carbamoyl)piperidin-1-yl)azepane-1-carboxylate]
– | 708 nM | 93% | 51.3 nM | 107% | > 20000 nM | 12% | > 20000 nM | 6% | CCOC(=O)N1CCCC(N2CCC(F)(C(=O)NC3CCCC3)CC2)CC1 (centres unmarked) [Example 51, ethyl 4-(4-fluoro-4-((cyclopentyl)carbamoyl)piperidin-1-yl)azepane-1-carboxylate]
– | 794 nM | 55% | 269 nM | 107% | > 20000 nM | 5% | > 20000 nM | 3% | CCOC(=O)N1CCCC(N2CCC(C(=O)NC3(C(F)(F)F)CCC3)CC2)CC1 (centres unmarked) [Example 70]
– | 224 nM | 104% | 57.5 nM | 132% | > 20000 nM | 3% | > 20000 nM | 33% | CCOC(=O)N1CCCC(N2CCC(C(=O)NC3CCCC3)CC2)CC1 (centres unmarked) [Example 30, ethyl 4-(4-(cyclopentylcarbamoyl)piperidin-1-yl)azepane-1-carboxylate]
– | 794 nM | 87% | 87.1 nM | 102% | > 20000 nM | 14% | > 20000 nM | 13% | [2H]C([2H])([2H])C([2H])(C([2H])([2H])[2H])C([2H])([2H])NC(=O)C1CCN(C2CCCN(C(=O)OCC)CC2)CC1 (centres unmarked) [Example 75, ethyl 4-(4-{[2-(^2H3)methyl(^2H6)propyl]carbamoyl}piperidin-1-yl)azepane-1-carboxylate]
– | 1070 nM | 63% | 105 nM | 90% | > 20000 nM | 9% | > 20000 nM | 1% | CCOC(=O)N1CCCC(N2CCC(F)(C(=O)NCC(C)(C)C)CC2)CC1 (centres unmarked) [Example 46, ethyl 4-(4-fluoro-4-((2,2-dimethylpropyl)carbamoyl)pipendin-1-yl)azepane-1-carboxylate]
– | 794 nM | 41% | 117 nM | 125% | > 20000 nM | 6% | 13200 nM | 23% | CCOC(=O)N1CCCC(N2CCC(C(=O)NCC(C)(C)C)CC2)CC1 (centres unmarked) [Example 9, ethyl 4-(4-((2,2-dimethylpropyl)carbamoyl)piperidin-1-yl)azepane-1-carboxylate]
– | 646 nM | 89% | 69.2 nM | 107% | > 20000 nM | 5% | > 20000 nM | 5% | CCOC(=O)N1CCC[C@H](N2CCC(C(=O)NCC(C)C)CC2)CC1 [Example 63]
– | 229 nM | 114% | 49 nM | 124% | > 20000 nM | 15% | > 20000 nM | 6% | CCOC(=O)N1CCCC(N2CCC(F)(C(=O)NC(C)(C)C3CC3)CC2)CC1 (centres unmarked) [Example 54, ethyl 4-(4-fluoro-4-((2-cyclopropylpropan-2-yl)carbamoyl)piperidin-1-yl)azepane-1-carboxylate]
– | 537 nM | 73% | 61.7 nM | 88% | > 20000 nM | 12% | > 20000 nM | 12% | CCOC(=O)N1CCCC(N2CCC(F)(C(=O)NC3(C)CCCC3)CC2)CC1 (centres unmarked) [Example 48, ethyl 4-(4-fluoro-4-((1-methylcyclopentyl)carbamoyl)piperidin-1-yl)azepane-1-carboxylate]
– | 525 nM | 71% | 37.2 nM | 89% | > 20000 nM | 15% | > 20000 nM | 7% | CC#CCOC(=O)N1CCCC(N2CCC(OC)(C(=O)NC3(C)CCC3)CC2)CC1 (centres unmarked) [Example 80, but-2-yn-1-yl 4-{4-methoxy-4-[(1-methylcyclobutyl)carbamoyl]piperidin-1-yl}azepane-1-carboxylate]
– | 589 nM | 39% | 83.2 nM | 101% | > 20000 nM | 7% | > 20000 nM | 4% | CCOC(=O)N1CCCC(N2CCC(C(=O)NCC3(C)CCCC3)CC2)CC1 (centres unmarked) [Example 18]
– | 427 nM | 67% | 60.3 nM | 117% | > 20000 nM | 7% | > 20000 nM | 11% | CCOC(=O)N1CCCC(N2CCC(C(=O)NCC3CCC3)CC2)CC1 (centres unmarked) [Example 11, ethyl 4-(4-((cyclobutylmethyl)carbamoyl)piperidin-1-yl)azepane-1-carboxylate]
– | 562 nM | 85% | 200 nM | 116% | > 20000 nM | 6% | > 20000 nM | 4% | CCOC(=O)N1CCC(N2CCC(C(=O)NC(C)(C)C(C)C)CC2)CC1 [Example 3]
